# Reference: publication PMC11986975, “A Cdk5 inhibitor restores cognitive function and alleviates type 2 diabetes in mice” (iScience, 2025)
# Assays:
# HFD-fed mice [1] = experiment: Insulin tolerance test (ITT) in HFD mice; format: in vivo; conditions: i.p., both dosages 20 and 40 mg/kg/day, 20 days
# Experimental: For the glucose tolerance test, 2 g/kg of glucose was utilized, and 0.75U/kg of human insulin was employed The glucose tolerance test (GTT) and insulin tolerance test (ITT) were performed in HFD mice models after 20 weeks of HFD feeding followed by 20 days of drug administration.[48] For GTT the mice were kept in a fasting period for overnight before glucose injections of 2 g/kg intraperitoneally. For ITT the mice were kept in a fasting for 6 h prior to insulin injection of 0.75 U/kg intraperitoneally. A one-touch glucometer was used to assess the blood sugar levels at various intervals (0, 60, and 120 min) following intraperitoneal infusion of both glucose and insulin.[23]^,[49]^,[50]^,[51] After 20 weeks of a HFD and 20 days of drug administration, the tests were carried out.
# Cdk9/CylT = experiment: Specificity kinase assay, Cdk9 with cyclin T; format: biochemical; conditions: inhibitor 0-100 nM
# Excerpt: To assess the specificity of inhibitors BLINK11 and BLINK15 against CDK5, we investigated their effects on different Cdks, i.e., Cdk1, Cdk2, and Cdk9 that share structural homology with CDK5. […] However, these IC50 values were higher than those observed for CDK5/p35 and CDK5/p25. […] Overall, BLINK11 and BLINK15 can selectively target CDK5 at lower concentrations.
# ligands are illustrated with red lines. The RMSD plots for the interactions of BLINK11 and
# Figure S3: BBB Permeability assay and Evaluation of non-specific kinase inhibition by
# BLINK11 and BLINK15 (A-B) PAMPA assay results of BLINK11 and BLINK15 compound.
# IC50 of all the kinases for both BLINK11 and BLINK15 inhibitors.
# (1 picture or pasted object on this page, not shown here)
# [2] = MTT cell toxicity assay in HepG2 cells; format: cell-based; conditions: human, all doses (25 to 100 μM)
# Experimental: HEK293T, HepG2, and N2A cells were used in the study representing kidney, liver and neuronal cell lines respectively. The cells were cultured in DMEM supplemented with 10% fetal bovine serum and antibiotics at 37°C under 5% CO2. The cells were tested negative for mycoplasma.
# To evaluate the compound toxicity for the Cdk5 inhibitors, an MTT assay was performed in HEK293T, HepG2, and N2A cells at varying concentrations. Six hours after cell seeding, the compounds were added in different amounts, and the cells were harvested after 24 h for further analysis. N2A cells were transfected using Lipofectamine-3000 reagent, co-transfecting with plasmids encoding Cdk5/p35 and Cdk5/p25 for 12 h, followed by inhibitor treatment to assess their effects in the cell culture system. The concentrations of each plasmids used was 1 μg, total of 3 μg per well for 6 well plates.
# HFD-fed mice [3] = experiment: Morris water maze (MWM) in HFD mice; format: in vivo; conditions: i.p., both doses 20 and 40 mg/kg/day, 20 days
# Experimental: The MWM test was conducted to evaluate memory and spatial learning in mice, using visual cues placed on the walls of a water tank. For five consecutive days, the mice were trained in the water maze, with each session involving the release of the mice from various starting points and the task of locating a hidden platform within the maze. Each day, the mice underwent four trials, following the established protocol by Charles V. Vorhees (2006). The time taken (latency) for each mouse to find the platform was measured and recorded throughout the training period.
# On the sixth day, a probe test was conducted to assess reference memory. The hidden platform was removed, and the mice’s behavior was observed as they navigated the maze. The time spent in the target quadrant and the time taken to reach the former platform location were recorded. This probing phase aimed to evaluate the mice’s retention of the spatial information and memory acquired during the training sessions. The MWM test evaluated memory and spatial learning in mice using visual cues in a water tank. Over five days, mice were trained to find a platform within the tank, undergoing four trials daily as per Charles V. Vorhees' protocol. On day six, a probing experiment assessed reference memory. […] Time spent and latency to reach the target quadrant were recorded. […]
# Cdk5/p25 = Cdk5/p25 (Homo sapiens, UniProt Q00535); experiment: Cdk5 kinase assay (ADP-Glo) with Cdk5/p25 complex; format: biochemical; conditions: 10 μM ATP, histone substrate, inhibitor 0-100 nM
# Sequence of Cdk5/p25 (Q00535 whole entry, species assumed): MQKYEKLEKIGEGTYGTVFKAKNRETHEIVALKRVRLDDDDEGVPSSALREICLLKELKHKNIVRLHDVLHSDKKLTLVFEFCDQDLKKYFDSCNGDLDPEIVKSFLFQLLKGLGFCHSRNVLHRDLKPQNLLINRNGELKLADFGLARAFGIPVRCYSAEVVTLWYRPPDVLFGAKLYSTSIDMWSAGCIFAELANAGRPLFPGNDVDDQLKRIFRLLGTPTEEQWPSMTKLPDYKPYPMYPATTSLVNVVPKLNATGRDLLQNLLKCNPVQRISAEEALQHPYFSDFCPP
# Sequence of Cdk5/p25 (Q15078 99-307 partner limits assumed, species assumed): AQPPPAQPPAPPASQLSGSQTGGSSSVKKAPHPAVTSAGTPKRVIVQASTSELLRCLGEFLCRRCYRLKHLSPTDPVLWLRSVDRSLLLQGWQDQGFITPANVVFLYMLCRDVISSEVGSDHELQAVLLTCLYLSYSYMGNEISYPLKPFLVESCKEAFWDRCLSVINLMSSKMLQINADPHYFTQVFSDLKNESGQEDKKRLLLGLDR
# Experimental: The test tube Cdk5 Kinase assay was performed utilizing Cdk5/p35 and Cdk5/p25 complexes as kinases, following the modified procedure outlined in a previous study,[52] using a Promega ADP-GloTM Kinase Assay kit. The reaction was carried out with 10 μM ATP and 2 μg of histone as the substrate for Cdk5 complexes. To study the inhibition patterns, 19 Cdk5 inhibitors (BLINK1-19) identified through molecular docking were added to the Cdk5 kinase reaction in increasing concentrations ranging from 0 to 100 nM. The IC50 (half-maximal inhibitory concentration) values of all the inhibitors were calculated based on Log(inhibitor) vs. normalized response using GraphPad software.
# HFD-fed mice [4] = experiment: Body weight in HFD-fed T2D mice; format: in vivo; conditions: i.p.
# Experimental: The HFD-fed mice model received intraperitoneal injections of the compounds BLINK11 and BLINK15 at doses of 20 mg/kg/day and 40 mg/kg/day for a total of 20 days in the third month of HFD feeding. The body weight was measured at the beginning of the drug therapy, on day 0, and then again on days 10 and 20, as indicated in Figure 4A.
# Two groups of four-week-old male C57BL/6J mice were established. One group (n = 8) was fed a standard laboratory mouse chow diet (Protein: 20% kcal, Carbohydrate: 70% kcal, Fat: 10% kcal), while the other group (n = 40) was placed on a HFD (Protein: 20% kcal, Carbohydrate: 20% kcal, Fat: 60% kcal).[23] Body weight, ITT, and GTT were assessed. Mice were treated with BLINK11 and BLINK15 inhibitors at 20 mg/kg and 40 mg/kg doses for 20 days. The study included six groups: Control, HFD, HFD_BLINK11_20, HFD_BLINK11_40, HFD_BLINK15_20, and HFD_BLINK15_40. […] The control used in the study are vehicle treated-control group (5% DMSO, 0.1% tween 20 and 1X PBS). The doses of 20 mg/kg and 40 mg/kg body weight were selected based on evidence from previous studies evaluating the efficacy and safety of similar kinase inhibitors.[45]^,[46]^,[47] […] The 40 mg/kg dose was selected to assess dose-dependent efficacy and represents the upper limit of tolerability based on pharmacokinetic and toxicity data.
Inhibition of Cdk9 (with cyclin T) (Cdk9/CylT),IC50 (Cdk5/p25),Structure (SMILES),Insulin tolerance test (ITT) (HFD-fed mice [1]),viability at 24 h [2],Water maze time to reach the platform (spatial learning and memory) (HFD-fed mice [3]),"Body weight gain caused by HFD (HFD-fed mice [4]; both dosages 20 and 40 mg/kg/day, 20 days)","Body weight gain caused by HFD (HFD-fed mice [4]; 40 mg/kg/day, 20 days (only the higher dose))"
minimal inhibition,14.7 nM,"O=C(COc1ccccc1C(=O)Nc1cccc(Cl)c1Cl)Nc1ccc(N2CCOCC2)c(Cl)c1 [BLINK11, 2-(2-((3-chloro-4-morpholinophenyl)amino)-2-oxoethoxy)-N-(2,3-dichlorophenyl)benzamide]",significant rescue,> 50%,rescue behavior,rescued from the gain in body weight,–
minimal inhibition,12.1 nM,COc1ccc(C(=O)C[C@@]2(O)C(=O)N(Cc3ccccc3)c3ccc(Br)cc32)cc1[N+](=O)[O-] [BLINK15],significant rescue,> 50%,rescue behavior,–,significant recovery
